# Source: article PMC6956158, “In Vitro and In Vivo Assessment of Metabolic Drug Interaction Potential of Dutasteride with Ketoconazole” (Pharmaceutics, 2019)
# Assay: Stability in rat plasma (QC samples)
# Type: in vitro ADME
# Conditions: n = 5; for Stability (percent drug remaining), Autosampler: 10 °C for 24 h in the autosampler; for Stability (percent drug remaining), Bench-Top: room temperature for 3 h; for Stability (percent drug remaining), Freeze-Thaw: three freezing and thawing cycles; for Stability (percent drug remaining), Long-Term: −20 °C for 30 days
# Protocol: The bioanalytical method proposed herein for the simultaneous determination of DUT and H-DUT was fully validated on the basis of the US FDA guideline. The selectivity of the method was evaluated by comparing chromatograms of the analytes (DUT, H-DUT, and internal standard) in blank rat plasma, blank rat plasma spiked with the analytes, and rat plasma sample obtained from the in vivo rat pharmacokinetic study. Further, the existence of potential interferences at the acquisition windows of the analytes was checked. The linearity of the method was evaluated by adding increasing amounts of DUT and H-DUT to the blank plasma. To construct calibration curves (n = 5), the peak area ratios of DUT or H-DUT to the internal standard (y-axis) were plotted against the nominal concentration ratios of DUT or H-DUT (10–1000 ng/mL) to the internal standard (400 ng/mL) (x-axis), and then, linear regression analysis was performed. The sensitivity was assessed by estimating the LLOQ (signal-to-noise [S/N] ratio > 5). The peaks of the analytes at the LLOQ should be discrete, identifiable, and reproducible with acceptable precision (<20%) and accuracy (within 80–120%). The extraction recovery, matrix effect, dilution integrity, and stability (under bench-top, freeze–thaw, post-preparative, and long-term conditions) in addition to the intra-assay (five different samples) and inter-assay (five different runs) precision and accuracy for each analyte were determined at the LLOQ and three different QC levels as described in the US FDA guidelines and in previous studies.
compound,measurement,setting,value
"C[C@]12C=CC(=O)N[C@@H]1CC[C@@H]1[C@@H]2CC[C@]2(C)[C@@H](C(=O)Nc3cc(C(F)(F)F)ccc3C(F)(F)F)CC[C@@H]12 [DUT, Dutasteride]","Stability (percent drug remaining), Autosampler",HQC 750 ng/mL,102 ± 2%
same,"Stability (percent drug remaining), Bench-Top",HQC 750 ng/mL,102 ± 0%
same,"Stability (percent drug remaining), Freeze-Thaw",HQC 750 ng/mL,100 ± 0%
same,"Stability (percent drug remaining), Long-Term",HQC 750 ng/mL,105 ±1%
same,"Stability (percent drug remaining), Autosampler",LLOQ 10 ng/mL,103 ± 8%
same,"Stability (percent drug remaining), Bench-Top",LLOQ 10 ng/mL,108 ± 1%
same,"Stability (percent drug remaining), Freeze-Thaw",LLOQ 10 ng/mL,99.3 ± 4.7%
same,"Stability (percent drug remaining), Long-Term",LLOQ 10 ng/mL,105 ± 5%
same,"Stability (percent drug remaining), Autosampler",LQC 30 ng/mL,103 ± 1%
same,"Stability (percent drug remaining), Bench-Top",LQC 30 ng/mL,105 ± 6%
same,"Stability (percent drug remaining), Freeze-Thaw",LQC 30 ng/mL,99.7 ± 2.7%
same,"Stability (percent drug remaining), Long-Term",LQC 30 ng/mL,102 ± 4%
same,"Stability (percent drug remaining), Autosampler",MQC 150 ng/mL,104 ± 2%
same,"Stability (percent drug remaining), Bench-Top",MQC 150 ng/mL,103 ± 1%
same,"Stability (percent drug remaining), Freeze-Thaw",MQC 150 ng/mL,106 ± 2%
same,"Stability (percent drug remaining), Long-Term",MQC 150 ng/mL,100 ± 1%
